Molecular target: Human immunodeficiency virus type 1 integrase (Human immunodeficiency virus 1, UniProt Q7ZJM1)
Test: Inhibition of HIV-1 integrase

Human immunodeficiency virus type 1 integrase, sequence (Q7ZJM1 whole entry): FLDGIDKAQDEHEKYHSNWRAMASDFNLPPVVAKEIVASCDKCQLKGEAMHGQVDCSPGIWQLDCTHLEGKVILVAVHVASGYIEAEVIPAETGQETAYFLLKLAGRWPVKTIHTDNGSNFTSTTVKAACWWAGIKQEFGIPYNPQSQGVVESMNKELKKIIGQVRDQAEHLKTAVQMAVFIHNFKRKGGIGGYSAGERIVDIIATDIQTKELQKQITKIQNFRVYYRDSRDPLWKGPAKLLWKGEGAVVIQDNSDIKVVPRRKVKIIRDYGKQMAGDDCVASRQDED

| IC50 | Compound |
| --- | --- |
| 8.91 nM | COc1cc2c(cc1Cc1cccc(Cl)c1F)c(=O)c(C(=O)O)cn2CCO |
| 31.6 nM | O=C(O)Cn1cc(C(=O)O)c(=O)c2cc(Cc3cccc(Cl)c3Cl)ccc21 |
| 69.2 nM | O=C(O)c1c[nH]c2ccc(Cc3cccc(Cl)c3Cl)cc2c1=O |

Source: ChEMBL document CHEMBL1208673, “CoMFA and CoMSIA 3D-QSAR studies on quionolone caroxylic acid derivatives inhibitors of HIV-1 integrase” (Eur J Med Chem, 2010)
